What was measured:
[1] = tested on: mortality induced by histamine; assay: Effect on the mortality induced by histamine; assay type: in vivo, male albino guinea pigs (Dunkin-Hartley); settings: Cavia porcellus, po; guinea pigs, os, 60 minutes before 1,25 mg/kg i.v. histamine dihydrochloride; parentheses: range
Description: The method described by Romer D. et al. (Med.Welt, 17, 791, 1966) was followed and the tests were carried out on male albino guinea pigs (Dunkin-Hartley), weighing 350-450 g, which were kept in cages with a grid floor, on an empty stomach for 24 hrs with water ad libitum.
The compounds under examination were dissolved in 0,5% carboxymethylcellolose and orally administered to the animals; 60 minutes later the same animals were intravenously treated with 1,25 mg/kg of histamine dihydrochloride in saline solution.
It was evaluated ED50 which corresponds to the amount of the compound able to inhibit 50% of the mortality induced by histamine: the estimation of ED50 was carried out applying the `probit` method (Finney D. J., Statistical methods in biological assay, pg 512, 1957).

[2] = Acute toxicity (LD50); settings: mouse, in vivo, ip; mice, 14 days observation
Description: The Letal Dose50 (LD50) was evaluated on mice using Swiss-Nos (Nossan, Correzzana, Milano) mice weighing 18-20 g each. The animals, divided into groups of 10 animals each (5M +5F), were on an empty stomach for 18 hrs, with water ad libitum, and kept in cages with grid floor. The compounds (I) were dissolved in water or suspended in 0.5% carboxymethylcellulose and intraperitoneally administered to the animals (10 ml/kg). The mortality occured in the tested animals within the following 6 hours was noted down. At the expiry of the 6th hour, the animals were allowed to eat up to the end of the experimentation which lasted 14 days. During this period all the toxic symptoms and the mortality occuring were noted.
The animals which died during the test period and those which were sacrificed at the end of the same, underwent autopsy for a macroscopic examination of their main organs. The experimental data were statistically compared with the X^2 method and LD50 was extrapolated by the `probit` method.

[3] = molecular target: T1, H1 histaminergic receptors (Rattus norvegicus, UniProt P31390); assay: Affinity towards H1 histaminergic receptors ([3H]Mepyramine displacement); settings: homogenates of rat brain, 25° C., 15 minutes, pH 7.5, read-out: H1-receptor binding Ki
T1 construct: in homogenates of rat brain; from tissue; host or cells: rat whole brain homogenate
Description: The incubation was performed at 25° C. for 15 minutes, in a final volume of 1 ml of 50 mM Na/K phosphate buffer, pH 7.5, in the presence of […][^3 H]Mepyramine and 1.5 mg of cerebral protein.
The test compounds were dissolved in phosphate buffer or dimethylsulfoxide (DMSO), the final concentration of DMSO was 0.5%. Incubation was terminated by filtration through glass fiber GF/B filters pre-soaked with 0.1% polyethylenimine (PEI); the radioactivity trapped by filters was counted by liquid scintillation.

[4] = tested on: sleeping time induced by sodium pentobarbital; assay: Effect on the sleeping time interval induced by pentobarbital; assay type: in vivo, male mice Swiss-Nos; parameters: key: IN: inactive at the dose of 100 mg/kg i.p; settings: mice, i.p., 30 minutes before 40 mg/kg i.p. sodium pentobarbital; ED100 = doubles the sleeping time vs control
Description: The tests were carried out on male mice Swiss-Nos (Nossan, Correzzana, Milano) weighing 20-24 g, on an empty stomach for 18 hrs, according to the method described by Turner (Screening Methods in Pharmacology, Acad. Press, pg 70,1965). The sleep was induced by intraperitoneal administration of 40 mg/kg sodium pentobarbital. The narcosis start was considered from the moment when the animal, lying on its back, lost its straightening reflex. The narcosis end was considered from the moment when the animal recovered such reflex. The carrier or the compounds under examination were intraperitoneally administered 30 minutes before the pentobarbital administration. The resulting data are expressed as sleeping time increase per cent of the treated animals in comparison with the controls.

T1 sequence (P31390 whole entry): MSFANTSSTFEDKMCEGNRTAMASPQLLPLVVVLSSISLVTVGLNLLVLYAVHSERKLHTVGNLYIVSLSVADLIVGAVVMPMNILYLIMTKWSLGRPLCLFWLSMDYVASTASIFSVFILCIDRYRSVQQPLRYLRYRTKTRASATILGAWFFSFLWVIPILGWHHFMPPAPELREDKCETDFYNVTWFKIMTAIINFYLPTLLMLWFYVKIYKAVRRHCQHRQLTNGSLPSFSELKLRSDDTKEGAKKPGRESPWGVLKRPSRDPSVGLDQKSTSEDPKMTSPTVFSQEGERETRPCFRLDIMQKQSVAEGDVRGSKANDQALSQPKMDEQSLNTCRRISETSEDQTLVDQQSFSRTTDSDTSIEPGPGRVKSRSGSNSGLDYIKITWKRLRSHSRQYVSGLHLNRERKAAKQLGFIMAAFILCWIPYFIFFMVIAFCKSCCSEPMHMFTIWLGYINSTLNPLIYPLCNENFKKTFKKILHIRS

Question: Which ED50 [1] does the source give for CC(C)(C)c1ccc(C(O)CCCN2CCC(C(O)(c3ccccc3)c3ccccc3)CC2)cc1 (centres unmarked) [Terfenadine, reference compound] here?
Answer: 0.179 mg/kg

Question: And the LD50 at 336 h [2]?
Answer: > 100 mg/kg

Question: Which ED50 [1] does the source give for CCOCCn1c(CCN(C)C)nc2ccccc21 [Example 9, 1-(2-Ethoxyethyl)-2-(2-dimethylaminoethyl)benzimidazole] here?
Answer: 0.00501 mg/kg

Question: What about the Ki [3] of the same molecule?
Answer: 6.1 nM

Question: And the “sleeping time % increase ED100” value [4]?
Answer: IN

Question: What about the LD50 at 336 h [2] of the same molecule?
Answer: > 100 mg/kg

Question: With CN(C)CCCc1nc2ccccc2n1Cc1ccc(F)cc1 [Example 6, 1-(4-fluorobenzyl)-2-(3-dimethylaminopropyl)benzimidazole] as the molecule, how does the ED50 [1] read?
Answer: 0.026 mg/kg

Question: And the Ki [3]?
Answer: 6.1 nM

Question: What about the “sleeping time % increase ED100” value [4] of the same molecule?
Answer: IN

Question: What about the LD50 at 336 h [2] of the same molecule?
Answer: > 100 mg/kg

Question: Which ED50 [1] does the source give for CCOCCn1c(CCCN(C)C)nc2ccccc21 [Example 1, 1-(2-Ethoxyethyl)-2-(3-dimethylaminopropyl)benzimidazole] here?
Answer: 0.00454 mg/kg

Question: And the Ki [3]?
Answer: 5.8 nM

Question: And the “sleeping time % increase ED100” value [4]?
Answer: IN

Question: And the LD50 at 336 h [2]?
Answer: 250 mg/kg

Reference: US4971980A, “Pharmacologically active benzimidazole derivatives” (Dompe Farmaceutici S.p.A., priority 1988, dated 1990)
